Data: patent US20240358744A1, “WOUND HEALING DRESSINGS AND FORMULATIONS AND METHODS OF USE THEREOF” (POLAROID IP B.V., priority 2023, published 2024)
In brackets after ≈: the same amount, converted by molar mass.

How the values were obtained:
[1] = system: Primary Human Dermal Fibroblast (HDFs); test: LDH cytotoxicity assay, HDF; format: cell-based; details: Table 16, summarized cell toxicity value, 24 hours treatment
Method: (§1) Primary Human Dermal Fibroblast (HDFs) and Human Keratinocyte (HaCaT) cells were selected for cytotoxicity and proliferation testing. HDFs were cultured in high glucose, no glutamine, no phenol red, Dulbecco's Modified Eagle Medium (DMEM) (GIBCO™). HDF media was further supplemented with 10% heat-inactivated fetal bovine serum (GIBCO™), 1% L-glutamine (GIBCO™) and 1% Penicillin-streptomycin (GIBCO™). HaCaTs cells were cultured in high glucose, no glutamine, no calcium DMEM (GIBCO™) supplemented with 10% heat inactivated foetal bovine serum, 1% L-glutamine, 1% Penicillin-streptomycin 1 mM calcium chloride (Sigma) throughout.
(§2) Mammalian cell populations were maintained in standard culture conditions at 37° C., 5% CO2 and >95% relative humidity. Upon reaching 80% total confluency, cells were removed from the incubator, the culture media aspirated, and the monolayer washed with Dulbecco's […] (DPBS). After washing, 10 mL of 1% trypsin (GIBCO™) was added to the flask and incubated to facilitate the detachment of cells from the culture vessel. Following dissociation, 10 mL of culture media was then added to each flask to neutralize the trypsin enzyme activity. The total 20-mL flask volume was transferred into a universal tube and centrifuged at 400 rcf for 5 minutes. Once complete, the pellet of cells was re-suspended in 10 mL warmed culture media and the number of cells per mL was determined using a hemocytometer counting chamber. Cell suspensions were then adjusted to 5×10^4 cells/mL for HDFs and 1×10^5 cells/mL for HaCaTs. 100 μL of the cell suspension was added to each well of a sterile, cell-culture-treated 96-well microtiter plate. The plates were incubated in standard culture conditions for 16-24 hours to allow cellular adherence to the culture vessel. […] Culture plates were removed from the incubator, the media removed; and monolayers washed with 100 μL of warmed DPBS. The contents of the test item dilution plates were transferred to the culture plates. […]
(§3) The secretion of lactate dehydrogenase (LDH) enzyme was used for quantitatively measuring cell damage and cytotoxicity. As damage to the cell plasma membrane releases LDH into the cell culture media, the extracellular LDH in the media can be quantified by a coupled enzymatic reaction in which LDH catalyzes the conversion of lactate to pyruvate via NAD+ reduction to NADH. […]
(§4) Following incubation with the selected compounds, 50 μL of media from each well was transferred to the corresponding well of a fresh 96 well culture plate. The presence of Lactate dehydrogenase (LDH) was then quantified using the INVITROGEN™ CyQUANT™ LDH Cytotoxicity Assay, fluorescence kit. Total fluorescence was measured by reading the plates on a plate reader at an excitation of 560 nm and an emission of 590 nm. […]

[2] = system: Human Keratinocyte (HaCaT) cells; test: LDH cytotoxicity assay, HaCaT; format: cell-based; details: Table 16, summarized cell toxicity value, 24 hours treatment
Method: as §1, §2, §3, §4

[3] = system: Pseudomonas aeruginosa ATCC 27853; test: MIC, broth microdilution in MH broth (resazurin); details: Table 17; modified Gompertz model; not marked ^: unreliable estimation, interpret with caution
[4] = system: Enterococcus faecalis ATCC 19433; test: MIC, broth microdilution in MH broth (resazurin); details: Table 17, modified Gompertz model
[5] = system: Escherichia coli ATCC 25922; test: MIC, broth microdilution in MH broth (resazurin); details: Table 17; modified Gompertz model; not marked ^: unreliable estimation, interpret with caution
[6] = system: Klebsiella pneumoniae KL1; test: MIC, broth microdilution in MH broth (resazurin); details: Table 17; modified Gompertz model; not marked ^: unreliable estimation, interpret with caution
[7] = system: Staphylococcus aureus MR1; test: MIC, broth microdilution in MH broth (resazurin); details: Table 17; modified Gompertz model; not marked ^: unreliable estimation, interpret with caution
[8] = system: Staphylococcus aureus NRS384; format: cell-based; details: Example 11
[9] = system: Klebsiella pneumoniae KL1; test: MBC, spot plating after 24 h
Method: (§5) To determine MBC compound concentrations breakpoints were estimated from MIC curves. Overnight cultures were set up as described above for all bacterial strains. The following day overnight cultures were adjusted to give a cell density of 5×10^5 cells per mL. Briefly, cultures were adjusted to the McFarland standard (0.08-0.12) and diluted (1:150). Adjusted cultures were inoculated into 96 well plates with 50 μL sterile Muller-Hinton broth (MHB) and 2 concentrations of each compound. […] MBC cultures were quantified by serial dilution in a 96 well plate and spot plating onto Muller-Hinton agar (MHA). MHA plates were incubated at 37° C. for 24 h and counted. Results are presented as CFU per mL.
(§6) To determine MBC compound concentrations, breakpoints were estimated from MIC curves. Overnight cultures were set up as described above for all bacterial strains. The following day overnight cultures were adjusted to give a cell density of 5×10^5 cells per mL. Briefly, cultures were adjusted to the McFarland standard (0.08-0.12) and diluted (1:150). Adjusted cultures were inoculated into 96 well plates with 50 μL sterile Muller-Hinton broth (MHB) and 2 concentrations of each compound. […] MBC cultures were quantified by serial dilution in a 96 well plate and spot plating onto Muller-Hinton agar (MHA). MHA plates were incubated at 37° C. for 24 hours and counted.

[10] = system: Pseudomonas aeruginosa ATCC 27853; test: MBC, spot plating after 24 h; details: Pseudomonas aeruginosa 27853; Example 11
Method: as §5, §6

[11] = system: Enterococcus faecalis ATCC 51299; test: MBC, spot plating after 24 h; details: Enterococcus faecalis EF51299; Example 11
Method: as §5, §6

[12] = system: Enterococcus faecalis ATCC 19433; test: MBC, spot plating after 24 h; details: Enterococcus faecalis EF19433; Example 11
Method: as §5, §6

[13] = system: Staphylococcus aureus ATCC 29213; test: MBC, spot plating after 24 h; details: Staphylococcus aureus 29213; Example 11
Method: as §5, §6

[14] = system: Escherichia coli ATCC 25922; test: MBC, spot plating after 24 h; details: for MBC EC25922: Table 18
Method: as §5, §6

[15] = system: Staphylococcus aureus MR1; test: MBC, spot plating after 24 h; details: Example 11
Method: as §5, §6

[16] = Assessment of MIC of select compounds, DMSO stocks (Example 8, Table 21); format: cell-based
[17] = system: Staphylococcus aureus NRS384; test: Murine wound infection model, bacterial CFU/wound (Example 6); details: Study 2 pilot; daily application of vancomycin (10 μg per wound)
S. aureus NRS 384 = test: Mouse Staphylococcus aureus-induced wound infection model, bacteria load in wound site (Studies I-V); details: for Ig(CFU/wound site) / ΔIg(CFU/wound site) vs infection control: Study III (Table 12), 1 mg/ml
[18] = 10 μL/wound site, 10 μg/wound site, twice a day, 24 h p.i.
[19] = 10 μL/wound site, 10 μg/wound site, twice a day, 48 h p.i.
[20] = 10 μL/wound site, 10 μg/wound site, twice a day, 72 h p.i.
[21] = 50 μL/wound site, 50 μg/wound site, twice a day, 24 h p.i.

SMILES: CCCCCC[N+](C)(C)CCOCCO.[Br-] [Compound 40598_109448]
- Mammalian Cell Cytotoxicity, HDF [1]: >100 µM
- Mammalian Cell Cytotoxicity, HaCaT [2]: >100 µM
- MIC PA27853 [3]: 0.06 µM
- MIC EF19433 ([4]; not marked ^: unreliable estimation, interpret with caution): Unstable
- MIC EC25922 [5]: 0.83 µM

SMILES: CCCCCCCCCCCC[N+](C)(C)CCOCCO.[Br-] [Compound 40597_109444]
- Mammalian Cell Cytotoxicity, HDF [1]: 100 µM
- Mammalian Cell Cytotoxicity, HaCaT [2]: 100 µM
- MIC KL1 [6]: 0.01 µM
- MIC MR1 [7]: 0.94 µM

SMILES: CN[C@H](CC(C)C)C(=O)N[C@H]1C(=O)N[C@@H](CC(N)=O)C(=O)N[C@H]2C(=O)N[C@H]3C(=O)N[C@H](C(=O)N[C@H](C(=O)O)c4cc(O)cc(O)c4-c4cc3ccc4O)[C@H](O)c3ccc(c(Cl)c3)Oc3cc2cc(c3O[C@@H]2O[C@H](CO)[C@@H](O)[C@H](O)[C@H]2O[C@H]2C[C@](C)(N)[C@H](O)[C@H](C)O2)Oc2ccc(cc2Cl)[C@H]1O [Van]
- MBC Concentration (μM) C [8]: 0.02 µM (≈ 0.029 µg/mL)
- MBC Concentration (μM) F ([9]; Klebisella pneumoniae KL1, Example 11): 1.25 µM (≈ 1.81 µg/mL)
- MBC Concentration (μM) G [10]: 2.50 µM (≈ 3.62 µg/mL)
- MBC Concentration (μM) D [11]: 0.04 µM (≈ 0.058 µg/mL)
- MBC Concentration (μM) E [12]: 0.08 µM (≈ 0.116 µg/mL)
- MBC Concentration (μM) A [13]: 0.02 µM (≈ 0.029 µg/mL)
- MBC Concentration (μM) H ([14]; Escherichia coli EC25922, Example 11): 0.31 µM (≈ 0.449 µg/mL)
- MBC Concentration (μM) B [15]: 0.02 µM (≈ 0.029 µg/mL)

SMILES: CN[C@H](CC(C)C)C(=O)N[C@H]1C(=O)N[C@@H](CC(N)=O)C(=O)N[C@H]2C(=O)N[C@H]3C(=O)N[C@H](C(=O)N[C@H](C(=O)O)c4cc(O)cc(O)c4-c4cc3ccc4O)[C@H](O)c3ccc(c(Cl)c3)Oc3cc2cc(c3O[C@@H]2O[C@H](CO)[C@@H](O)[C@H](O)[C@H]2O[C@H]2C[C@](C)(N)[C@H](O)[C@H](C)O2)Oc2ccc(cc2Cl)[C@H]1O [Vancomycin]
- MIC Concentration ([16]; Enterococcus faecalis EF19433): 5.00 µM
- MIC Concentration ([16]; Escherichia coli EC25922): 0.63 µM
- MIC Concentration ([16]; Klebisella oxytoca KL1): 0.63 µM
- MIC Concentration ([16]; Pseudomonas aeruginosa 27853): 5.00 µM
- MIC Concentration ([16]; Staphylococcus aureus 29213): 0.04 µM
- MIC Concentration ([16]; Staphylococcus aureus MR1): 0.04 µM
- MIC Concentration ([16]; Staphylococcus aureus NRS384): 0.04 µM
- log reduction in wound S. aureus at 24 hrs post-seeding [17]: 1 log
- log reduction in wound S. aureus at 72 hrs post-seeding [17]: 1 log
- Ig (CFU/wound site) 12 h p.i. (S. aureus NRS 384; Study I, inoculum 4.20E+06 CFU/wound site, 39637 and 20-1 100 μM, 50 μL/wound site, once a day, Vancomycin 1 mg/ml, 10 μL/wound site, twice a day, starting at 5 min p.i.): 8.47 ± 0.22 Ig (CFU/wound site)
- Ig (CFU/wound site) 24 h p.i. (S. aureus NRS 384; Study I, same regimens as E1): 7.67 ± 0.60 Ig (CFU/wound site)
- ΔIg (CFU/wound site) vs 12 h infection control (S. aureus NRS 384; Study I, same regimens as E1): −0.11 ± 0.22 Ig (CFU/wound site)
- ΔIg (CFU/wound site) vs 24 h infection control (S. aureus NRS 384; Study I, same regimens as E1): −1.12 ± 0.60 Ig (CFU/wound site)
- effect at 12-hour post infection (S. aureus NRS 384; Study I, single dose at 10 μg): not manifest
- Ig(CFU/wound site) (S. aureus NRS 384; [18]): 7.67 Ig(CFU/wound site)
- ΔIg(CFU/wound site) vs infection control (S. aureus NRS 384; [18]): −1.11 Ig(CFU/wound site)
- Ig(CFU/wound site) (S. aureus NRS 384; [19]): 5.29 Ig(CFU/wound site)
- ΔIg(CFU/wound site) vs infection control (S. aureus NRS 384; [19]): −3.28 Ig(CFU/wound site)
- Ig(CFU/wound site) (S. aureus NRS 384; [20]): 5.12 Ig(CFU/wound site)
- ΔIg(CFU/wound site) vs infection control (S. aureus NRS 384; [20]): −2.83 Ig(CFU/wound site)
- Ig(CFU/wound site) (S. aureus NRS 384; [21]): 4.37 Ig(CFU/wound site)
- ΔIg(CFU/wound site) vs infection control (S. aureus NRS 384; [21]): −4.40 Ig(CFU/wound site)

SMILES: CCCCCCCCCCCCCCCCCC[N+](C)(C)CCOCCO.[Br-] [Compound 39637_105543]
- Mammalian Cell Cytotoxicity, HDF [1]: 6.3 µM
- Mammalian Cell Cytotoxicity, HaCaT [2]: 6.3 µM
- MIC KL1 [6]: +infinity
- MIC EF19433 ([4]; marked ^: reliable estimation of MIC): 3.20^ μM

SMILES: CCCCCCCCCCCCCCCCCC[N+](C)(C)CCOCCO.[Br-] [Compound 39637_109466]
- Mammalian Cell Cytotoxicity, HDF [1]: 6.3 µM
- Mammalian Cell Cytotoxicity, HaCaT [2]: 6.3 µM
- MBC KL1 ([9]; Table 18): 50 µM
- MBC EC25922 [14]: 25 µM

SMILES: CCCCCCCCCCCCCCCCCC[N+](C)(C)CCOCCO.[Br-] [39637 105543]
- MBC EC25922 [14]: 25 µM
